Key:
Type in all cases: functional
Mus musculus [1] = species: Mus musculus; assay: Concentration required for inhibition of nitric oxide production in LPS-activated mouse macrophages
Mus musculus [2] = species: Mus musculus; assay: Inhibition of nitric oxide production in LPS-activated mouse macrophages at a concentration of 1 uM
Mus musculus [3] = species: Mus musculus; assay: Inhibition of nitric oxide production in LPS-activated mouse macrophages at a concentration of 10 uM
Mus musculus [4] = species: Mus musculus; assay: Inhibition of nitric oxide production in LPS-activated mouse macrophages at a concentration of 100 uM
Mus musculus [5] = species: Mus musculus; assay: Inhibition of nitric oxide production in LPS-activated mouse macrophages at a concentration of 3 uM
Mus musculus [6] = species: Mus musculus; assay: Inhibition of nitric oxide production in LPS-activated mouse macrophages at a concentration of 30 uM

SMILES | IC50 (Mus musculus [1]) [µM] | inhibition at 1 µM (Mus musculus [2]) [%] | inhibition at 10 µM (Mus musculus [3]) [%] | inhibition at 100 µM (Mus musculus [4]) [%] | inhibition at 3 µM (Mus musculus [5]) [%] | inhibition at 30 µM (Mus musculus [6]) [%]
C[C@H](C[C@H](O)[C@H](O)C(C)(C)O)C1=C2C[C@H](O)C3[C@@]4(C)CCC(=O)C(C)(C)C4CC[C@]3(C)[C@@]2(C)CC1 (stereo not given in full) | > 10 | 5.8 | 30 | 111 | 21.4 | 113
COC(=O)C(C)(C)C1CC[C@@]2(C)C3[C@H](CC4=C([C@H](C)C[C@H](OC(C)=O)[C@H]5OC5(C)C)CC[C@@]42C)OC(=O)C[C@@]13C (stereo not given in full) | 10 | -2.6 | 49.2 | 110 | 17.2 | 84.2
CC(=O)O[C@@H](C[C@@H](C)C1=C2[C@H](O)[C@H](O)C3[C@@]4(C)CCC(=O)C(C)(C)C4CC[C@]3(C)[C@@]2(C)CC1)[C@H]1OC1(C)C (stereo not given in full) | > 10 | 5.9 | 32.3 | 116 | 4 | 117
C[C@H](C[C@H](O)[C@@H](O)C(C)(C)O)C1=C2C[C@H](O)C3[C@@]4(C)CCC(=O)C(C)(C)C4CC[C@]3(C)[C@@]2(C)CC1 (stereo not given in full) | > 10 | 0.2 | 26.2 | 114 | 21.4 | 84.2
CC(=O)O[C@H]1C[C@@H](C)C2=C3C[C@H](O)C4[C@@]5(C)CCC(=O)C(C)(C)C5CC[C@]4(C)[C@@]3(C)C[C@@H]2O[C@H]1C(C)(C)O (stereo not given in full) | 36 | -4.5 | 13.5 | 90.8 | 7.5 | 42.9
C[C@@H]1CC([C@H]2OC2(C)C)OC2C[C@@]3(C)C(=C21)CCC1[C@@]2(C)CCC(=O)C(C)(C)C2CC[C@@]13C (stereo not given in full) | 12 | -5.1 | 31.2 | 100 | 21.7 | 84.2
CC(C)C1=CC2C(CC[C@]2(C)O)[C@](C)(O)CC1 (stereo not given in full) | > 100 | -2.5 | 0.4 | 33.1 | -1.8 | 12
CC(=O)O[C@@H](C[C@@H](C)C1=C2C[C@H](O)C3[C@@]4(C)CCC(=O)C(C)(C)C4CC[C@]3(C)[C@@]2(C)CC1=O)[C@H]1OC1(C)C (stereo not given in full) | 42 | 2.9 | 21.1 | 67.3 | 13.3 | 43.8
C=C1CC[C@@]2(C(C)C)O[C@H]2C2C1CC[C@]2(C)O (stereo not given in full) | 53 | 0.9 | 14.1 | 74.9 | 5 | 29.2
CC(C)[C@]12CC[C@](C)(O1)C1CC[C@](C)(S(=O)(=O)O)C1[C@@H]2O (stereo not given in full) | > 100 | 3.3 | 4.3 | 24.7 | -2.1 | 12.6
CC(=O)O[C@@H](C[C@@H](C)C1=C2C=CC3[C@@]4(C)CCC(=O)C(C)(C)C4CC[C@]3(C)[C@@]2(C)CC1=O)[C@H]1OC1(C)C (stereo not given in full) | 8.4 | 17.8 | 54.8 | 104 | 27.9 | 86.5
CC(=O)O[C@@H](C[C@@H](C)C(=O)CC[C@@]1(C)C(=O)C=CC2[C@@]3(C)CCC(=O)C(C)(C)C3CC[C@@]21C)[C@H]1OC1(C)C (stereo not given in full) | 23 | 2.9 | 22.7 | 114 | 10.2 | 61
CC(=O)O[C@@H](C[C@@H](C)C1=C2C[C@H](O)C3[C@@]4(C)CCC(=O)C(C)(C)C4CC[C@]3(C)[C@@]2(C)CC1)[C@H]1OC1(C)C (stereo not given in full) | > 10 | 0 | 29.7 | 105 | 13.4 | 106
CC(C)C1=CC2C(CC[C@]2(C)O)[C@@](O)(CO)CC1 (stereo not given in full) | 68 | -4.3 | 4.8 | 64.1 | -3.1 | 21.2
CC(=O)O[C@@H](C[C@@H](C)C1=C2[C@H](O)[C@H](O)C3[C@@]4(C)CCC(=O)C(C)(C)C4CC[C@]3(C)[C@@]2(C)CC1=O)[C@H]1OC1(C)C (stereo not given in full) | 9.3 | 19 | 50.8 | 104 | 29.7 | 86.3
C[C@H](C[C@H](O)[C@H]1OC1(C)C)C1=C2C[C@H](O)C3[C@@]4(C)CCC(=O)C(C)(C)C4CC[C@]3(C)[C@@]2(C)CC1 (stereo not given in full) | > 10 | 13.2 | 36.3 | 108 | 21.3 | 109
O=C(/C=C/c1ccc(O)c(O)c1)OCCc1ccccc1 [CAFFEIC ACID PHENETHYL ESTER] | 4 | -1.9 | 97.5 | 104 | 25.5 | 104
C=C1/C=C/[C@H](C(C)C)CC/C(C)=C/CC1 [GERMACRENE D] | 58 | 7.5 | 16.7 | 68.5 | 1.6 | 29
CNC(=N)NCCC[C@H](N)C(=O)O [TILARGININE] | 28 | 4.4 | 17.7 | 79.2 | 2 | 52.3

Now from value to molecule, other results behind:

IC50 (Mus musculus [1]) [µM] | SMILES | inhibition at 1 µM (Mus musculus [2]) [%] | inhibition at 10 µM (Mus musculus [3]) [%] | inhibition at 100 µM (Mus musculus [4]) [%] | inhibition at 3 µM (Mus musculus [5]) [%] | inhibition at 30 µM (Mus musculus [6]) [%]
> 10 | C=C(C)[C@H](O)[C@@H](O)C[C@@H](C)C1=C2C[C@H](O)C3[C@@]4(C)CCC(=O)C(C)(C)C4CC[C@]3(C)[C@@]2(C)CC1 (stereo not given in full) | 8.8 | 29.7 | 106 | 21.4 | 104
> 100 | CC(C)C1=CC2C(CC[C@]2(C)O)/C(=C/S(=O)(=O)O)CC1 (stereo not given in full) | 8.4 | 11 | 27.1 | 14.3 | 21.5
23 | C=C1CCC(C(C)C)=CC2C1CC[C@]2(C)O (stereo not given in full) | 3.4 | 27 | 97.4 | 17.6 | 57.5
> 100 | CC(C)C1=CC2C(CC[C@]2(C)O)[C@@](O)(CS(=O)(=O)O)CC1 (stereo not given in full) | 2.8 | 4.9 | 21.3 | -2.2 | 16.3
17 | C[C@H](CC(=O)CC(C)(C)O)C1=C2CCC3[C@@]4(C)CCC(=O)C(C)(C)C4CC[C@]3(C)[C@@]2(C)CC1=O (stereo not given in full) | -5.1 | 26.7 | 97.2 | 17.2 | 71.3
16 | CC(=O)O[C@@H](C[C@@H](C)C1=C2C[C@H](O)C3[C@@]4(C)CCC(=O)C(C)(C)C4CC[C@]3(C)[C@@]2(C)CC1)[C@H](O)C(C)(C)O (stereo not given in full) | 9.2 | 32.1 | 104 | 10 | 81
> 10 | CC(=O)O[C@@H](C[C@@H](C)[C@]12O[C@H]1C[C@@]1(C)C2=CC(=O)C2[C@@]3(C)CCC(=O)C(C)(C)C3CC[C@@]21C)[C@H]1OC1(C)C (stereo not given in full) | 9.9 | 31.1 | 114 | 11.9 | 83.6
15 | C[C@@H]1CC([C@@H](O)C(C)(C)O)OC2C[C@@]3(C)C(=C21)C[C@H](O)C1[C@@]2(C)CCC(=O)C(C)(C)C2CC[C@@]13C (stereo not given in full) | 7.5 | 40.3 | 99.5 | 14.8 | 69.6
16 | CC(=O)O[C@@H](C[C@@H](C)C1=C2C[C@@H]3OC(=O)C[C@@]4(C)C(C(C)(C)C(=O)O)CC[C@@](C)(C34)[C@@]2(C)CC1)[C@H]1OC1(C)C (stereo not given in full) | 10.3 | 38.2 | 90.7 | 23.2 | 65.6
> 10 | CC(=O)O[C@H]([C@@H](O)C[C@@H](C)C1=C2C[C@H](O)C3[C@@]4(C)CCC(=O)C(C)(C)C4CC[C@]3(C)[C@@]2(C)CC1)C(C)(C)O (stereo not given in full) | -2.9 | 13.4 | 112 | 6.4 | 71
1.4 | N=C(N)NCCSSCCNC(=N)N [GUANIDINOETHYLDISULFIDE] | 39.1 | 102 | 105 | 76.3 | 105
